# Measured values published in patent US20230182351A1, “ANTI-MICROBIAL ADDITIVE AND PROPERTIES TO FOAM TO PREVENT MOLD” (LEAR CORPORATION, priority 2021, published 2023).
# System: bacterial and fungal growth
# Experiment: Antimicrobial tests summarized in Table 1 (JIS Z 2801, ASTM G-21)
# Assay type: cell-based
# Details: in polyurethane foam, amount systematically varied
# Protocol: Two polyurethane sample families were prepared. The amount of the liquid antimicrobial agent N-butyl-1,2-benzisothiazolin-3-one was systematically varied. It is pointed out that he JIS Z 2801 method test is an industry standard for testing the ability of a surface to inhibit the growth of microorganisms. ASTM G-21 is a test for fungal resistance test
structure (smiles),measurement,value
"CCCCn1sc2ccccc2c1=O [N-butyl-1,2-benzisothiazolin-3-one]",inhibition of bacterial and fungal growth,significant inhibition
